Source: US5112863A, “Antipsychotic drug” (Nippon Oil & Fats Co., Ltd., priority 1989, dated 1992)

Legend:
[1] = test system: Wistar rats; assay: Antipsychotic action test: phencyclidine-induced locomotor activity and stereotypy (method of Sturgen et al.); assay type: in vivo; details: for Locomotor activity score / Stereotypy score: 10 min before phencyclidine 10 mg/kg i.p., 30 minutes, grades 0-5; for Dose dependence of locomotor activity and stereotypy score: 30 minutes after pretreatment and dosage of phencyclidine; for Control of locomotor activity and stereotypy score: group dosed 100 mg/kg; for Statistical significance of lowering of locomotor activity and stereotypy score: group dosed more than 50 mg/kg, P<0.01; for Effect on locomotor activity and stereotypy score compared with NMD-Ser and NMD-Ala: phencyclidine-dosed rats, dose not stated
Protocol: (§1) Method: the action of antipsychotic was estimated by a method of Sturgen et al. (Eur. J. Pharmacol 76, 37-53, 1981). Namely, medicines suspended in 0.1% Tween 80 were dosed in the abdomen of Wistar rats (Weight: 200-250 g, 6 rats/group). After ten minutes, phencyclidine dissolved in physiological saline (10 mg/kg) was dosed intraperitoneally. After ten minutes, locomotor activity and stereotypy score were estimated at intervals of 20 minutes by 6 grades.
1. Sometimes, movement within localized area of cage.
2. Movement over a small area of cage, intermittent activity emitted at a low-moderate rate.
3. Movement over a small area of cage, activity emitted continuously and at a moderate-rapid rate.
4. Movement over a large area of cage, activety is intermittent and emitted at a low-moderate rate.
5. Movement over a large area of cage, activety is emitted continuously and at a moderate-rapid rate.
1. Locomotor activity, sniffing and grooming more frequent than observed for control.
2. Higher frequency of sniffing, rearing or turning than in 1.
3. Moderate rate and intermittent sniffing, rearing, turning or backpedaling.
4. Rapid rate and continuous turning, backpedaling, sniffing.
5. Dyokinetic extension and flexion of limbs, head and neck.

[2] = test system: GABA system; details: via a GABA system; Japanese Patent Publications; Biochemical Pharmacol., 32, 2751-2755, 1983; cited from earlier work
[3] = test system: glycine binding site; assay: Intracranial administration with 7-chlorokynurenic acid, phencyclidine-induced locomotor activity and stereotypy; assay type: in vivo, rats; details: 200 mg/kg with 7-chlorokynurenic acid (allosteric antagonist of glycine binding site) dosed in the brain
Protocol: as §1
Rats were anesthetized with pentobarbital (40 mg/kg, intruperitoneally) and mounted on a stereotaxic frame. For the intracranical administration of 7-chlorokynurenicocid, the guide cannulae were fixed to the skull. Beginning 5-7 days after surgery, bilateral intracranial injections were performed in the non-anesthetized rats with cannulae attached by poly ethylene tubes to two 10 μl Hamilton syringes. The injection site was A.P. -0.8 (anterior to bregma), V. +2.0, L.±1.5 according to the atlas of Paxinos and Watson (1982). The medicine 5 μl was injected in four minutes a minute after inserting the needle. After the injection the injection needle was kept in the brain for five minutes and removed. After ten minutes from the beginning of the injection, phencyclidine was dosed intraperitoneally.

[4] = dosed in a living body; background statement; cited from earlier work
[5] = background statement; cited from earlier work

Work on CCCCCCCCCCCCCC(=O)N[C@H](C)C(=O)O [NMD-Ala, N-myristoyl-D-alanine] yielded a Locomotor activity score ([1]; 1 mg/kg i.p.) of 2.8 ± 0.2, a Stereotypy score ([1]; 1 mg/kg i.p.) of 3.0 ± 0.4 and a Locomotor activity score ([1]; 10 mg/kg i.p.) of 2.4 ± 0.4. The Stereotypy score ([1]; 10 mg/kg i.p.) was 2.4 ± 0.2, the Locomotor activity score ([1]; 50 mg/kg i.p., P < 0.01) was 2.2 ± 0.4 and the Stereotypy score ([1]; 50 mg/kg i.p., P < 0.01) was 2.0 ± 0.3. For the same compound, the Locomotor activity score ([1]; 100 mg/kg i.p., P < 0.01) was 0.7 ± 0.3, the Stereotypy score ([1]; 100 mg/kg i.p., P < 0.01) was 0.8 ± 0.3 and the Locomotor activity score ([1]; 200 mg/kg i.p., P < 0.01) was 1.5 ± 0.3. For the same compound, the Stereotypy score ([1]; 200 mg/kg i.p., P < 0.01) was 1.3 ± 0.4, the “Dose dependence of locomotor activity and stereotypy score” value [1] was “the scores lessen with the decrease of the dose” and the “Control of locomotor activity and stereotypy score” value [1] was “nearly controlled”. The “Statistical significance of lowering of locomotor activity and stereotypy score” value [1] was “statistical significant difference (P<0.01) is found”.

In the case of CCCCCNCC(N)=O [2-n-pentyl amino aceto amide], the “Anticonvulsant functions for convulsion induced with bicuculline” value [2] is given as “anticonvulsant functions”.

In the case of CCCCCCCCCCCCCC(=O)N[C@H](CO)C(=O)O [NMD-Ser, N-myristoyl-D-serine], the “Locomotor activity and stereotypy score observed at a dose of N-myristoyl-D-serine alone, when dosed with 7-chlorokynurenic acid” value [3] is reported as “are not observed”, the Locomotor activity score ([1]; 1 mg/kg i.p.) is reported as 3.7 ± 0.2 and the Stereotypy score ([1]; 1 mg/kg i.p.) is reported as 3.2 ± 0.3. For the same compound, the Locomotor activity score ([1]; 10 mg/kg i.p.) was 3.3 ± 0.2, the Stereotypy score ([1]; 10 mg/kg i.p.) was 3.2 ± 0.3 and the Locomotor activity score ([1]; 50 mg/kg i.p., P < 0.01) was 2.0 ± 0.3. It also gave a Stereotypy score ([1]; 50 mg/kg i.p., P < 0.01) of 1.7 ± 0.2, a Locomotor activity score ([1]; 100 mg/kg i.p., P < 0.01) of 1.5 ± 0.5 and a Stereotypy score ([1]; 100 mg/kg i.p., P < 0.01) of 1.2 ± 0.3. For the same compound, the Locomotor activity score ([1]; 200 mg/kg i.p., P < 0.01) was 1.5 ± 0.3, the Stereotypy score ([1]; 200 mg/kg i.p., P < 0.01) was 1.5 ± 0.2 and the “Dose dependence of locomotor activity and stereotypy score” value [1] was “the scores lessen with the decrease of the dose”. The “Control of locomotor activity and stereotypy score” value [1] was “nearly controlled” and the “Statistical significance of lowering of locomotor activity and stereotypy score” value [1] was “statistical significant difference (P<0.01) is found”.

In the case of NCC(=O)O [glycine], the “Passage through blood brain barrier” value [4] is listed as “can not pass through blood brain barrier”.

For CCCCCCCC/C=C\CCCCCCCC(=O)N[C@H](CO)C(=O)O [N-oleoyl-D-serine], the “Effect on locomotor activity and stereotypy score compared with NMD-Ser and NMD-Ala” value [1] was “the same effect is observed”.

In the case of CN(C)CCCN1c2ccccc2Sc2ccc(Cl)cc21 [chlorpromazine], the Side effect [5] is given as “unsatisfactorily side effect, for example, myogelosis, mouth dry, sleepiness and constipation”.

In the case of CCCCC(=O)NCC(=O)O [2-pentanoyl amino acetic acid], the “Anticonvulsant functions for convulsion induced with bicuculline” value [2] is given as “anticonvulsant functions”.

For CCCCC(=O)N[C@H](CO)C(=O)O [N-pentanoyl-D-serine], the “Effect on locomotor activity and stereotypy score compared with NMD-Ser and NMD-Ala” value [1] was “the same effect is observed”.
